From ChEMBL document CHEMBL1124193, “Synthesis and bacterial DNA gyrase inhibitory properties of a spirocyclopropylquinolone derivative” (J Med Chem, 1988)
Values after ≈ are worked out from the molar mass of the structure shown.

How the values were obtained:
Type in all cases: functional
Streptococcus pneumoniae = assay: In vitro minimum inhibitory concentration against Streptococcus pneumoniae (ATCC 6301)
Mus musculus [1] = assay: In vivo antibacterial activity against Escherichia coli (Vogel) in mice administered subcutaneously; conditions: sc, read-out: PD50
Bacteroides fragilis = assay: In vitro minimum inhibitory concentration against Bacteroides fragilis (ATCC 25285)
Escherichia coli = assay: In vitro minimum inhibitory concentration against Escherichia coli (ATCC […]25922)
Staphylococcus aureus = assay: In vitro minimum inhibitory concentration against Staphylococcus aureus (ATCC 29213)
Pseudomonas aeruginosa = assay: In vitro minimum inhibitory concentration against Pseudomonas aeruginosa (ATCC 27853)
Enterococcus faecalis = assay: In vitro minimum inhibitory concentration against Streptococcus faecalis (ATCC 29212)
Mus musculus [2] = assay: In vivo antibacterial activity against Escherichia coli (Vogel) in mice administered perorally; conditions: po, read-out: PD50

SMILES | MIC (Streptococcus pneumoniae) | ED50 (Mus musculus [1]) | MIC (Bacteroides fragilis) | MIC (Escherichia coli) | MIC (Staphylococcus aureus) | MIC (Pseudomonas aeruginosa) | MIC (Enterococcus faecalis) | ED50 (Mus musculus [2])
CN1CCN(c2c(F)cc3c(=O)c(C(=O)O)cn4c3c2OCC42CC2)CC1 | 8 µg/mL (≈ 21.4 µM) | 1.9 mg/kg | 8 µg/mL (≈ 21.4 µM) | 0.125 µg/mL (≈ 0.335 µM) | 2 µg/mL (≈ 5.36 µM) | 4 µg/mL (≈ 10.7 µM) | 8 µg/mL (≈ 21.4 µM) | 6.3 mg/kg
O=C(O)c1cn(C2CC2)c2cc(N3CCNCC3)c(F)cc2c1=O [CIPROFLOXACIN] | 0.25 µg/mL (≈ 0.754 µM) | 0.2 mg/kg | 2 µg/mL (≈ 6.04 µM) |  | 0.25 µg/mL (≈ 0.754 µM) |  | 0.5 µg/mL (≈ 1.51 µM) | 0.86 mg/kg
C[C@H]1COc2c(N3CCN(C)CC3)c(F)cc3c(=O)c(C(=O)O)cn1c23.C[C@H]1COc2c(N3CCN(C)CC3)c(F)cc3c(=O)c(C(=O)O)cn1c23.O [LEVOFLOXACIN] |  | 3.8 mg/kg | 16 µg/mL |  | 2 µg/mL | 32 µg/mL | 16 µg/mL | 10.1 mg/kg
CC1COc2c(N3CCN(C)CC3)c(F)cc3c(=O)c(C(=O)O)cn1c23 (stereo unspecified) [OFLOXACIN] |  | 1.2 mg/kg | 0.5 µg/mL (≈ 1.38 µM) |  | 0.25 µg/mL (≈ 0.692 µM) | 0.5 µg/mL (≈ 1.38 µM) | 2 µg/mL (≈ 5.53 µM) | 2.2 mg/kg
